According to BindingDB's records for doi:10.1111/j.1747-0285.2009.00909.x (Queen's University, 2010):
Where “and” joins values, the source holds several entries; their conditions need not be identical. Equal entries are not always repeated.

Columns and labels:
Heme oxygenase 1 = biological target: T1, Heme oxygenase 1 (Rattus norvegicus, UniProt P06762); assay: Heme Oxygenase; conditions: pH 7.4; 25 °C
T1 sequence (P06762 whole entry): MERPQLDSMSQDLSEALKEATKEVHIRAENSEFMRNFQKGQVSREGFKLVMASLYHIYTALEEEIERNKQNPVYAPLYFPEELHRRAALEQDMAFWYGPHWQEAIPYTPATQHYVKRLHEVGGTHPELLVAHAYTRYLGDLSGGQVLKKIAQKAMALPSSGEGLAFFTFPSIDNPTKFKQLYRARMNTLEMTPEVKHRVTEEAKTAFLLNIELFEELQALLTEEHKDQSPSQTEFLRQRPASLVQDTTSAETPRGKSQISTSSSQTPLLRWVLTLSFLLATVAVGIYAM
Protocol: (§1) Heme oxygenase activity in rat spleen and brain microsomal fractions was determined by the quantitation of CO formed from the degradation of methemalbumin (heme complexed with albumin). Spleen and brain (SpragueâDawley rats) microsomal fractions were prepared according to the procedure outlined by Appletonet al. Protein concentration of microsomal fractions was determined by a modification of the Biuret method. Incubations for HO activity analysis were performed under conditions for which the rate of CO formation [pmol CO â (min mg protein)] was linear with respect to time and microsomal protein concentration. […] […]

Heme oxygenase 2 = biological target: T2, Heme oxygenase 2 (Rattus norvegicus, UniProt P23711); assay: Heme Oxygenase; conditions: pH 7.4; 25 °C
T2 sequence (P23711 whole entry): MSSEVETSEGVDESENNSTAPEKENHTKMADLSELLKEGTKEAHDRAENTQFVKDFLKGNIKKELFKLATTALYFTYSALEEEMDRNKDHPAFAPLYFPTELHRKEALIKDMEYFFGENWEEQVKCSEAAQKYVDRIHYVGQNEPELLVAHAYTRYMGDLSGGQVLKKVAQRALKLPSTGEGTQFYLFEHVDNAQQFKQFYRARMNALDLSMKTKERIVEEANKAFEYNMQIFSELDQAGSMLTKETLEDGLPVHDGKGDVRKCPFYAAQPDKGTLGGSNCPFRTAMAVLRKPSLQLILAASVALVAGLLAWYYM
Protocol: as §1

Structure (SMILES) | IC50 (Heme oxygenase 1) [µM] | IC50 (Heme oxygenase 2)
O=C(CCc1ccccc1)Cn1ncnn1 [1-azolyl-4-phenyl-2-butanone, 11] |  | 30 µM and > 100 µM
OC(CCc1ccccc1)Cn1ccnc1 (stereo not drawn) | 6 | 
COOSc1ncnn1CC(=O)CCc1ccccc1 [1-azolyl-4-phenyl-2-butanone, 46] | > 100 | > 100 µM
O=C(CCc1ccccc1)Cn1cnc(Cl)c1Cl [1-azolyl-4-phenyl-2-butanone, 20] | > 100 | > 100 µM
O=C(CCc1ccccc1)Cn1cnc(-c2ccccc2)c1 [1-azolyl-4-phenyl-2-butanone, 24] |  | > 100 µM
O=C(CCc1ccccc1)Cn1nc2ccccc2n1 [1-azolyl-4-phenyl-2-butanone, 14] | > 100 | > 100 µM
CSc1ncn(CC(=O)CCc2ccccc2)n1 [1-azolyl-4-phenyl-2-butanone, 31] | > 100 | > 100 µM
O=C(CCc1ccccc1)Cn1cccn1 [1-azolyl-4-phenyl-2-butanone, 5] | > 100 | > 100 µM
O=C(CCc1ccccc1)Cn1cnc(-c2ccccc2)c1-c1ccccc1 [1-azolyl-4-phenyl-2-butanone, 21] |  | > 100 µM
O=C(CCc1ccccc1)Cn1cnc(N(O)O)c1 [1-azolyl-4-phenyl-2-butanone, 26] | > 100 | > 100 µM
Cc1nccn1CC(=O)CCc1ccccc1 [1-azolyl-4-phenyl-2-butanone, 15] | > 100 | > 100 µM
O=C(CCc1ccccc1)Cn1nnnc1-c1ccccc1 [1-azolyl-4-phenyl-2-butanone, 40] | > 100 | > 100 µM
CSc1nnn(CC(=O)CCc2ccccc2)n1 [1-azolyl-4-phenyl-2-butanone, 41] | > 100 | > 100 µM
CSc1nnnn1CC(=O)CCc1ccccc1 [1-azolyl-4-phenyl-2-butanone, 38] | > 100 | > 100 µM

Next, values leading:

IC50 (Heme oxygenase 1) [µM] | IC50 (Heme oxygenase 2) | Structure (SMILES)
89 | > 100 µM | O=C(CCc1ccccc1)Cn1ccnn1 [1-azolyl-4-phenyl-2-butanone, 8]
> 100 | > 100 µM | O=C(CCc1ccccc1)Cn1nccn1 [1-azolyl-4-phenyl-2-butanone, 9]
> 100 | > 100 µM | O=C(CCc1ccccc1)Cn1ccnc1-c1ccccc1 [1-azolyl-4-phenyl-2-butanone, 16]
> 100 | > 100 µM | CSc1ncnn1CC(=O)CCc1ccccc1 [1-azolyl-4-phenyl-2-butanone, 35]
> 100 | > 100 µM | O=C(CCc1ccccc1)Cn1nc(Br)nc1Br [1-azolyl-4-phenyl-2-butanone, 36]
> 100 | > 100 µM | O=C(CCc1ccccc1)Cn1cnc(N(O)O)n1 [1-azolyl-4-phenyl-2-butanone, 32]
> 100 | > 100 µM | O=C(CCc1ccccc1)Cn1cnc(Br)c1 [1-azolyl-4-phenyl-2-butanone, 25]
